From patent publication US20250276972A1, “COMPOUNDS AS CASEIN KINASE INHIBITORS” (GRITSCIENCE BIOPHARMACEUTICALS CO.,LTD., priority 2020, published 2025)

What was measured:
in vitro = settings: human, Caco-2, pH 7.4
Method: Cells were cultivated for 14-18 days in a cell culture incubator at 37° C., 5% CO2, 95% relative humidity. Cell culture medium was replaced every other day, beginning no later than 24 hours after initial plating.
10 mM stock solutions of test compounds were prepared in DMSO. The stock solutions of positive controls were prepared in DMSO at the concentration of 10 mM.
125 μL of 5 μM working solution of control compound and test compounds were added to the Transwell insert (apical compartment), and transfer 50 μL sample (DO sample) immediately from the apical compartment to a new 96-well plate. […] 285 μL of 5 μM working solution of control compound and test compounds were to the receiver plate wells (basolateral compartment), and transfer 50 μL sample (DO sample) immediately from the basolateral compartment to a new 96-well plate. Fill the wells in the Transwell insert (apical compartment) with 75 μL of HBSS (10 mM HEPES, pH 7.4). […] Samples were Vortexed for 5 minutes and then centrifuged at 3,220 g for 40 minutes. […] 100 μL of the Lucifer yellow solution was added to each Transwell insert (apical compartment), followed by filling the wells in the receiver plate (basolateral compartment) with 300 μL of HBSS (10 mM HEPES, pH 7.4). The plates were Incubated at 37° C. for 30 mins. 80 μL samples were removed directly from the apical and basolateral wells (using the basolateral access holes) and transferred to wells of new 96 wells plates. The Lucifer Yellow fluorescence (to monitor monolayer integrity) signal was measured in a fluorescence plate reader at 485 nm excitation and 530 nm emission.
The apparent permeability coefficient (Papp), in units of centimeter per second, can be calculated for Caco-2 drug transport assays using the following equation: […]

[1] = Intrinsic clearance in liver microsomes (human); format: in vitro ADME; settings: Human liver microsomes 0.5 mg/mL, 2 μM compound, 37° C.
Method: (§1) • 1. The master solution was prepared according to Table 5.
(§2) • 2. Three separated experiments were performed as follows. a) With NADPH: 10 μL of 20 mg/mL liver microsomes and 40 μL of 10 mM NADPH were added to the incubations. The final concentrations of microsomes and NADPH were 0.5 mg/mL and 1 mM, respectively. b) Without NADPH: 10 μL of 20 mg/mL liver microsomes and 40 μL of ultra-pure H2O were added to the incubations. The final concentration of microsomes was 0.5 mg/mL. c) Heat-inactivated microsomes without NADPH: 10 μL of 20 mg/mL heat-inactivated liver microsomes and 40 μL of ultra-pure H2O were added to the incubations. The final concentration of microsomes was 0.5 mg/mL. • 3. The reaction was started with the addition of 4 μL of 200 μM test compound solution or control compound solution at the final concentration of 2 μM and carried out at 37° C. • 4. Aliquots of 50 μL were taken from the reaction solution at 0, 15, 30, 45 and 60 min. […] Samples were centrifuged at 3, 220 g for 40 minutes. […] Data Analysis
(§3) Peak areas were determined from extracted ion chromatograms. The slope value, k, was determined by linear regression of the natural logarithm of the remaining percentage of the parent drug vs. incubation time curve.
(§4) The in vitro half-life (in vitro t1/2) was determined from the slope value:
(§5) Conversion of the in vitro t1/2 (min) into the in vitro intrinsic clearance (in vitro CLint, in μL/min/mg protein) was done using the following equation (mean of duplicate determinations): […]

CK1δ = molecular target: T1, CK1δ (Homo sapiens, UniProt P48730); assay: CK1δ inhibition (EC50); Bmal1-dLuc or Per2-dLuc U2OS luminescence rhythm period assay; format: cell-based; settings: Table 3
T1 construct: endogenous in cells; host or cells: Bmal1-dLuc or Per2-dLuc U2OS cells
T1 sequence (P48730 whole entry): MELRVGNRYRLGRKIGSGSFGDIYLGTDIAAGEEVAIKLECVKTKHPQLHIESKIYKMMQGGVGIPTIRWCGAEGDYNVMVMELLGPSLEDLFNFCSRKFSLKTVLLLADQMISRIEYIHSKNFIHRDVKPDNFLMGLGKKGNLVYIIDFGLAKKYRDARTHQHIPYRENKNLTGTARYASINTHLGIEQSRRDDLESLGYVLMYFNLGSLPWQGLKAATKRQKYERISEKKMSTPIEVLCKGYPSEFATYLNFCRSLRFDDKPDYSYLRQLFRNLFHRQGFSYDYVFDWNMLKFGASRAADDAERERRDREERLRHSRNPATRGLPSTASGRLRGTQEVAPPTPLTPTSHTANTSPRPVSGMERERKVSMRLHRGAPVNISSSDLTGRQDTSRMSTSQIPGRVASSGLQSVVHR
Method: Bmall-dLuc or Per2-dLuc U2OS cells were suspended in the culture medium (DMEM supplemented with 10% fetal bovine serum, 0.29 mg/mL L-glutamine, 100 units/mL penicillin, and […] streptomycin) and plated onto 96-well white solid-bottom plates at 200 μL (10,000 cells) per well. After 2 days, 100 μL of the explant medium (DMEM supplemented with 2% B27, 10 mM HEPES, 0.38 mg/mL sodium bicarbonate, 0.29 mg/mL L-glutamine, 100 units/mL penicillin, […], 0.1 mg/mL gentamicin, and 1 mM luciferin, pH 7.2) was dispensed to each well, followed by the application of 1 μL of a compound of the present application (dissolved in DMSO; final concentration was 0.7% in DMSO). The plate was covered with an optically clear film and set to microplate reader (Infinite M200, Tecan).

[2] = Intrinsic clearance in liver microsomes (mouse); format: in vitro ADME; settings: Mouse liver microsomes 0.5 mg/mL, 2 μM compound, 37° C.
Method: as §1, §2, §3, §4, §5

wild type CK1δ = wild type CK1δ (Homo sapiens, UniProt P48730); assay: CK1δ kinase assay (Kinase-Glo); format: biochemical; settings: 10 μM ATP, 2 nM wild type CK1δ, 85 min at 25° C.
wild type CK1δ, sequence (P48730 whole entry): as above
Method: The reaction mixture was incubated for 85 min at 25° C.; detection was carried out as described for the Kinase-Glo Assay (Promega). Luminescent output was measured on the Perkin Elmer Envision plate reader (PerkinElmer, Waltham, MA).

[3] = read-out: in vitro CLint (μL/min/mg protein)

Papp A→B at 2 h, 5 μM (in vitro)	Papp B→A at 2 h, 5 μM (in vitro)	efflux ratio at 2 h, 5 μM (in vitro)	microsomal CLint at 2 μM [1, 3]	half-life at 2 μM ([1]; read-out: in vitro t1/2)	EC50 (CK1δ)	microsomal CLint at 2 μM [2, 3]	half-life at 2 μM ([2]; read-out: in vitro t1/2)	IC50 (wild type CK1δ)	SMILES
8.8 nm/s	224 nm/s	25.4	13.5 µL/min/mg	1.71 h	0.2 µM	35.1 µL/min/mg	0.658 h		CC(=O)Nc1cc(-c2c(-c3ccc(F)cc3)nn3c2CN(CCN(C)C)CC3)ccn1 [Compound I-50, N-(4-(5-(2-(dimethylamino)ethyl)-2-(4-fluorophenyl)-4,5,6,7-tetrahydropyrazolo [1,5-a]pyrazin-3-yl)pyridin-2-yl)acetamide]
					5.2 µM			1.7 µM	Cc1cc(-c2c(-c3ccc(F)cc3)nn3c2CN(C(=O)C(F)(F)F)CC3)ccn1 [Compound I-16, 2,2,2-trifluoro-1-(2-(4-fluorophenyl)-3-(2-methylpyridin-4-yl)-6,7-dihydropyrazolo [1,5-a]pyrazin-5(4H)-yl)ethan-1-one]
